Experimental findings from patent US20250228761A1, “COMPOSITION COMPRISING A SURFACE-REACTED CALCIUM CARBONATE AND A TANNIN” (Omya International AG, priority 2021, published 2025) are described below.

The assay can be described thus: In vitro measurement of antiperspirant effect (SOD4 device, Smart-Pore microchannels). Conditions: 80% hygrometry, 2 mg/cm^2 dose. The procedure:
In vitro measurement of antiperspirant activity was measured with an SOD4 device from Microfactory, France. The SOD4 device is an automated biomimetic system that imitates the sweating process. The device comprises (1) Smart-Pore™: a silicone microfluidic chip containing microchannels which mimic skin pores (number of pores per chip: 4; dimensions of the pores: 60 μm×60 μm×2 mm; material: polydimethylsiloxane); (2) a pressure system controlling the flow of sweat in the pores down to nanoliter volumes; (3) a climate chamber regulated in humidity/temperature to reproduce perspiration conditions; (4) an optical system to monitor and record the interaction between the antiperspirant and artificial sweat.
Known antiperspirants block sweat pores thereby reducing sweating of a subject. The blocking is caused by a precipitate or clot in the sweat pore which is formed by interaction of the antiperspirant with components of sweat. The SOD4 device mimics this process and allows for analyzing the interaction of an antiperspirant sample and artificial sweat in the microfluidic channel. The analysis includes, e.g. detection of precipitate/clot formation, measuring precipitate/clot formation time, and measuring pressure (bursting pressure) which is necessary for removing the precipitate/clot from the microchannel. […]

As to Aluminium chlorohydrate [Sample 4], for the setting “average of the maximal pressure applied before unclogging of precipitate/clot from the microchannel, after one hour interaction with artificial sweat at 25° C.”, the “Burst pressure (mbar)*” value is reported as 699 +/− 34 mbar. Further, where the note is “average over all observed clots, artificial sweat, 25° C.”, the “Clot formation time” value is reported as 2047 s.
